According to the supplement of paper PMC10307832:

Legend:
Test in all cases: relative viability (nuclei count vs DMSO), 5 days (fraction); higher = more cells survive
[1] = system: HCC-366
How it was run: (§1)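 Lung cancer cell lines in 1536-well plates got either a single drug or a fixed anchor-drug dose together with five library-drug doses (not always all listed) in √10 steps, by pin tool, on the day after seeding. Nuclei were counted after 5 days, and relative viability is the treated-to-vehicle ratio of nuclei counts. Values are medians of duplicate plates.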

[2] = system: NCI-H647
How it was run: as §1

[3] = system: NCI-H2170
How it was run: as §1

[4] = system: HARA
How it was run: as §1

[5] = system: LOU-NH91
How it was run: as §1

[6] = system: NCI-H1792
How it was run: as §1

[7] = system: NCI-H1355
How it was run: as §1

[8] = system: NCI-H1437
How it was run: as §1

[9] = system: NCI-H1734
How it was run: as §1

[10] = system: BEN
How it was run: as §1

[11] = system: NCI-H2405
How it was run: as §1

[12] = system: NCI-H1993
How it was run: as §1

[13] = system: HCC-827
How it was run: as §1

[14] = system: NCI-H2342
How it was run: as §1

[15] = system: NCI-H1395
How it was run: as §1

[16] = system: NCI-H661
How it was run: as §1

[17] = system: NCI-H2087
How it was run: as §1

[18] = system: EKVX
How it was run: as §1

[19] = system: NCI-H522
How it was run: as §1

[20] = system: SK-MES-1
How it was run: as §1

[21] = system: NCI-H2009
How it was run: as §1

[22] = system: SK-LU-1
How it was run: as §1

Compound: O=c1cc(N2CCOCC2)oc2c(-c3cccc4c3sc3ccccc34)cccc12 + COc1cccc2cc(-c3nc([C@H]4CC[C@H](C(=O)O)CC4)n4ncnc(N)c34)[nH]c12 [OSI-027] (partner 0.5 µM)
- relative viability ([1]; first compound 0.01 µM): 1
- relative viability ([1]; first compound 0.03162 µM): 1.38
- relative viability ([1]; first compound 0.1 µM): 1.12
- relative viability ([1]; first compound 0.3162 µM): 0.928
- relative viability ([1]; first compound 1 µM): 0.955
- relative viability ([2]; first compound 0.01 µM): 0.689
- relative viability ([2]; first compound 0.03162 µM): 0.739
- relative viability ([2]; first compound 0.1 µM): 0.302
- relative viability ([2]; first compound 0.3162 µM): 0.747
- relative viability ([2]; first compound 1 µM): 0.745
- relative viability ([3]; first compound 0.01 µM): 0.716
- relative viability ([3]; first compound 0.03162 µM): 0.845
- relative viability ([3]; first compound 0.1 µM): 0.716
- relative viability ([3]; first compound 0.3162 µM): 0.716
- relative viability ([3]; first compound 1 µM): 0.716
- relative viability ([4]; first compound 0.01 µM): 0.549
- relative viability ([4]; first compound 0.03162 µM): 0.638
- relative viability ([4]; first compound 0.1 µM): 0.554
- relative viability ([4]; first compound 0.3162 µM): 0.585
- relative viability ([4]; first compound 1 µM): 0.564
- relative viability ([5]; first compound 0.01 µM): 0.68
- relative viability ([5]; first compound 0.03162 µM): 0.754
- relative viability ([5]; first compound 0.1 µM): 0.728
- relative viability ([5]; first compound 0.3162 µM): 0.779
- relative viability ([5]; first compound 1 µM): 0.702
- relative viability ([6]; first compound 0.01 µM): 0.717
- relative viability ([6]; first compound 0.03162 µM): 0.716
- relative viability ([6]; first compound 0.1 µM): 0.653
- relative viability ([6]; first compound 0.3162 µM): 0.752
- relative viability ([6]; first compound 1 µM): 0.779
- relative viability ([7]; first compound 0.01 µM): 0.474
- relative viability ([7]; first compound 0.03162 µM): 0.469
- relative viability ([7]; first compound 0.1 µM): 0.265
- relative viability ([7]; first compound 0.3162 µM): 0.452
- relative viability ([7]; first compound 1 µM): 0.394
- relative viability ([8]; first compound 0.01 µM): 0.907
- relative viability ([8]; first compound 0.03162 µM): 0.848
- relative viability ([8]; first compound 0.1 µM): 0.913
- relative viability ([8]; first compound 0.3162 µM): 0.944
- relative viability ([8]; first compound 1 µM): 0.935
- relative viability ([9]; first compound 0.01 µM): 0.697
- relative viability ([9]; first compound 0.03162 µM): 0.599
- relative viability ([9]; first compound 0.1 µM): 0.579
- relative viability ([9]; first compound 0.3162 µM): 0.67
- relative viability ([9]; first compound 1 µM): 0.609
- relative viability ([10]; first compound 0.01 µM): 0.304
- relative viability ([10]; first compound 0.03162 µM): 0.309
- relative viability ([10]; first compound 0.1 µM): 0.302
- relative viability ([10]; first compound 0.3162 µM): 0.323
- relative viability ([10]; first compound 1 µM): 0.311
- relative viability ([11]; first compound 0.01 µM): 0.717
- relative viability ([11]; first compound 0.03162 µM): 0.615
- relative viability ([11]; first compound 0.1 µM): 0.564
- relative viability ([11]; first compound 0.3162 µM): 0.663
- relative viability ([11]; first compound 1 µM): 0.685
- relative viability ([12]; first compound 0.01 µM): 0.501
- relative viability ([12]; first compound 0.03162 µM): 0.521
- relative viability ([12]; first compound 0.1 µM): 0.566
- relative viability ([12]; first compound 0.3162 µM): 0.532
- relative viability ([12]; first compound 1 µM): 0.65
- relative viability ([13]; first compound 0.01 µM): 0.853
- relative viability ([13]; first compound 0.03162 µM): 0.813
- relative viability ([13]; first compound 0.1 µM): 0.744
- relative viability ([13]; first compound 0.3162 µM): 0.772
- relative viability ([13]; first compound 1 µM): 0.791
- relative viability ([14]; first compound 0.01 µM): 0.641
- relative viability ([14]; first compound 0.03162 µM): 0.591
- relative viability ([14]; first compound 0.1 µM): 0.652
- relative viability ([14]; first compound 0.3162 µM): 0.715
- relative viability ([14]; first compound 1 µM): 0.533
- relative viability ([15]; first compound 0.01 µM): 0.574
- relative viability ([15]; first compound 0.03162 µM): 0.695
- relative viability ([15]; first compound 0.1 µM): 0.488
- relative viability ([15]; first compound 0.3162 µM): 0.68
- relative viability ([15]; first compound 1 µM): 0.707
- relative viability ([16]; first compound 0.01 µM): 0.692
- relative viability ([16]; first compound 0.03162 µM): 0.738
- relative viability ([16]; first compound 0.1 µM): 0.772
- relative viability ([16]; first compound 0.3162 µM): 0.756
- relative viability ([16]; first compound 1 µM): 0.708
- relative viability ([17]; first compound 0.01 µM): 0.569
- relative viability ([17]; first compound 0.03162 µM): 0.637
- relative viability ([17]; first compound 0.1 µM): 0.544
- relative viability ([17]; first compound 0.3162 µM): 0.416
- relative viability ([17]; first compound 1 µM): 0.599
- relative viability ([18]; first compound 0.01 µM): 0.673
- relative viability ([18]; first compound 0.03162 µM): 0.715
- relative viability ([18]; first compound 0.1 µM): 0.659
- relative viability ([18]; first compound 0.3162 µM): 0.719
- relative viability ([18]; first compound 1 µM): 0.749
- relative viability ([19]; first compound 0.01 µM): 0.83
- relative viability ([19]; first compound 0.03162 µM): 0.708
- relative viability ([19]; first compound 0.1 µM): 0.496
- relative viability ([19]; first compound 0.3162 µM): 0.737
- relative viability ([19]; first compound 1 µM): 0.737
- relative viability ([20]; first compound 0.01 µM): 0.613
- relative viability ([20]; first compound 0.03162 µM): 0.685
- relative viability ([20]; first compound 0.1 µM): 0.531
- relative viability ([20]; first compound 0.3162 µM): 0.633
- relative viability ([20]; first compound 1 µM): 0.579
- relative viability ([21]; first compound 0.01 µM): 0.697
- relative viability ([21]; first compound 0.03162 µM): 0.791
- relative viability ([21]; first compound 0.1 µM): 0.664
- relative viability ([21]; first compound 0.3162 µM): 0.65
- relative viability ([21]; first compound 1 µM): 0.654
- relative viability ([22]; first compound 0.01 µM): 0.35
- relative viability ([22]; first compound 0.03162 µM): 0.393
- relative viability ([22]; first compound 0.1 µM): 0.355
- relative viability ([22]; first compound 0.3162 µM): 0.398
- relative viability ([22]; first compound 1 µM): 0.415
